Assay results: publication PMC7852560 (Neuropsychopharmacology, 2020)

Experiments:
CB1R [1] = target: T1, CB1R (Homo sapiens, UniProt P21554); test: cell-based; type: cell-based; conditions: hCB1R CHO cells, data not shown
Experimental: The cAMP BRET experiments were performed as previously described. Briefly, hCB1R HEK293 cells were transfected with 5 µg/10 cm dish of the CAMYEL biosensor using polyethylenimine. After 24 h, the cells were plated into white 96-well plates (PerkinElmer) at a density of 60,000 cells/well.
Cyclic AMP accumulation was measured using a DiscoverX HitHunter® cAMP Assay for Small Molecules (DiscoverX, Fremont, CA). hCB1R CHO cells were seeded at a density of 40,000 cells/well in 96-well white plates and grown overnight at 37 °C, 5% CO2 in a humidified incubator. […] Vehicle concentration was 1% DMSO, 0.1% BSA. Following agonist incubation, 15 µl of cAMP antibody reagent and 60 µl of working cAMP detection solution (containing 19 parts cAMP lysis buffer, 5 parts Substrate Reagent 1, 1 part Substrate Reagent 2 and 25 parts of cAMP Solution D) were added to all wells. Assay plates were incubated in the dark for 1 hr at room temperature, followed by addition of 60 µl cAMP solution A to all wells and incubation for 3 hr at room temperature in the dark. Plates were read using a GloMax Discover plate-reader (Promega, Madison, WI).

CB1R [2] = target: T1, CB1R; set-up: beta-galactosidase enzyme fragment (EFC; ProLink by own knowledge); method as in PMID 16113085, PMID 18029031; conditions: cited from earlier work
CB1R [3] = target: T1, CB1R; set-up: beta-galactosidase enzyme fragment (EFC; ProLink by own knowledge); method as in PMID 16113085, PMID 18029031; conditions: cited from earlier work; remark: listed apart in the source
Male C57Bl/6J mice = test: Cannabinoid-induced tetrad; type: in vivo; conditions: 10 mg/kg i.p., 30 min prior
Experimental: Male C57Bl/6J mice (PD > 70) were tested on the cannabinoid-induced tetrad, as previously described.
(i.p.) before testing. The tetrad was performed (1) catalepsy, (2) locomotion, (3) temperature, and (4) analgesia. Catalepsy: time (s) spent immobile with front paws on a plastic rod (1.5cm diameter), at a height of 4.5-cm from the table, before adjusting abnormal posture (either front paws being removed from the bar, or back paws climbing onto bar). Locomotion: horizontal activity (cm) was immediately measured in an open field test, following catalepsy, for 15-min. in 1-min bins. Temperature: rectal temperature (°C) was measured immediately following open-field testing, using a thermometer with rectal probe (Labcorp, Fisher, Waltham, MA). Analgesia: latency (s) to withdraw tail from hot water bath (52 °C), to assess tail-flick antinociception, was completed immediately following temperature readings.

Male Sprague Dawley rats = test: Conditioned avoidance response (CAR); type: in vivo; conditions: rats, ABM300 10 mg/kg, olanzapine 1 mg/kg i.p. daily
Experimental: Male Sprague Dawley rats (PD>63) were trained on a CAR protocol and responding following drug exposure was determined. […] Animals were trained to learn a house light (CS) as predictive of an avoidable 0.6mA scrambled foot shock (US). Each session consisted of 50 trials and animals avoided >70% of trials on the final acquisition session were tested for CAR during vehicle baseline, drug exposure, and re-emergence. In addition to CAR testing, both temperature and catalepsy were recorded in these animals (measure of potential CB1R agonism). Temperature: recorded on first day of drug exposure, prior to injection and 60-90-min. following drug exposure.

GluN1KD mice [4] = test: Open-field test in GluN1KD mice; conditions: ABM300 10 mg/kg, OLA 1 mg/kg i.p., 30 min before test
GluN1KD mice [5] = test: Pre-pulse inhibition in GluN1KD mice; type: in vivo; conditions: ABM300 10 mg/kg, OLA 1 mg/kg i.p.
Experimental: Pre-Pulse Inhibition (PPI): PPI of the acoustic startle response was measured on day 3, via SR-LAB equipment and software from San Diego Instruments. Accelerometers were calibrated to 700±5 mV and output voltages were amplified and analyzed for voltage changes using SR Analysis (San Diego Instruments, San Diego, CA, USA), and exported as an excel file. Background white noise was maintained at 65dB. PPI was measured in a 30-min test with 80 randomized trials of: (1) 10 trials pulse alone (2) 10 trials pre-pulse alone (for each pre-pulse), (3) 10 trials pre-pulse plus pulse (for each pre-pulse), and (4) 10 trials no pulse. 5 pulse alone trials were performed before and after the 80 trials, totaling 90 trials per run. The pre-pulse (4dB, 8dB, or 16dB) was presented 100ms prior to the startle pulse […]. The inter-stimulus interval (ISI) was randomized between 5 and 20s. Experimental mice were placed in a cylindrical tube on a platform in a soundproof chamber. Mice were allowed to acclimatize in the chamber and to the background noise for 300s, followed by 5 consecutive pulse alone trials, then by 80 randomized trials (as described above) and then 5 consecutive pulse alone trials. Pre-pulse inhibition was measured as a decrease in the amplitude of startle response to a 100dB acoustic startle pulse, following each pre-pulse (4dB, 8dB and 16dB).

C57Bl/6J mice = type: in vivo; conditions: 10 mg/kg i.p., 30 min before test, compared to vehicle
Text: (i.p.) before testing. The EPM was composed of 4 opaque-white arms (2 opposite arms closed, 2 opposite arms open), arranged in a plus shape, with an open center. The dimensions were as follows; maze elevation (38.7cm), open arm (L:30.5 cm, W:5 cm, H:0 cm), closed arm (L:30.5 cm, W:5 cm, H:15.2 cm) and center (5 cm x 5 cm). The experiment mouse was placed in the center of the maze and allowed to freely explore the maze for 8-min (50lux), while being tracked with an overhead camera. Open and closed arm times were recorded and collected by Biobserve Viewer3 software. The percentage of time spent in the open arms as compared to closed arms and center time was calculated and expressed as a percent of time spent in the open or closed arms of the maze.

T1 sequence (P21554 whole entry): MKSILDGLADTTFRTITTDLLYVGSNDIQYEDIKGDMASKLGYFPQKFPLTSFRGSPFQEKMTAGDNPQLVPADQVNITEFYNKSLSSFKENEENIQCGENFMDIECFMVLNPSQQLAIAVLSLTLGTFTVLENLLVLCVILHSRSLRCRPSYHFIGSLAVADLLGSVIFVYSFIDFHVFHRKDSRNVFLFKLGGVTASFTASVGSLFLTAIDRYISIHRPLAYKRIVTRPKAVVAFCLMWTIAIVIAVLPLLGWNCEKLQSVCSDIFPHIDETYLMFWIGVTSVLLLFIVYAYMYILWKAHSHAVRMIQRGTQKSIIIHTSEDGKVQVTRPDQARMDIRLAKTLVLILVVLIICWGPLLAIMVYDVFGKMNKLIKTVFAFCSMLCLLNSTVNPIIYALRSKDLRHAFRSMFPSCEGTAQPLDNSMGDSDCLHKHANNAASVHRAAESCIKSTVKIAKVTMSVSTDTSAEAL

CCCCCCC(C)(C)c1ccc([C@@H]2C[C@H](O)CC[C@H]2CCCO)c(O)c1 [CP55,940, reference compound]
effect on forskolin-stimulated cAMP accumulation (CB1R [1]): inhibited

CCc1c(C(=O)NCCc2ccc(N3CCCCC3)cc2)[nH]c2ccc(Cl)cc12 [Org275]
CB1R agonist-mediated signaling (CB1R [2]): acts as an inhibitor
Bmax of [3H] CB1R agonist binding (CB1R [3]): increases the Bmax

CCCCCc1cc(O)c2c(c1)OC(C)(C)[C@@H]1CCC(C)=C[C@@H]21 [THC, Δ^9-tetrahydrocannabinol, reference compound]
tetrad: catalepsy-induced immobility time (Male C57Bl/6J mice): produced effects
tetrad: percent inhibition of locomotor activity (15 min) (Male C57Bl/6J mice): produced effects
tetrad: rectal temperature (Male C57Bl/6J mice): produced effects
tetrad: tail withdrawal (% MPE) (Male C57Bl/6J mice): produced effects

Cc1cc2c(s1)Nc1ccccc1N=C2N1CCN(C)CC1 [olanzapine, reference compound]
escape failures in CAR (Male Sprague Dawley rats): neither ABM300 nor olanzapine affected escape failures
escape responding during CAR (Male Sprague Dawley rats): enhanced escape responding
avoidance behavior in CAR (Male Sprague Dawley rats; 30 min prior): attenuated avoidance behavior
exaggerated stereotypic activity (GluN1KD mice [4]): Effects of ABM300 are similar to those seen with olanzapine
novelty-induced hyperactivity (distance traveled) (GluN1KD mice [4]): Effects of ABM300 are similar to those seen with olanzapine
rearing behavior (vertical exploration) (GluN1KD mice [4]): Effects of ABM300 are similar to those seen with olanzapine
acoustic startle response (GluN1KD mice [5]): did not respond
sensorimotor gating deficits (PPI; 4, 8, 16 dB) (GluN1KD mice [5]): did not respond

Cc1c(C(=O)NN2CCCCC2)nn(-c2ccc(Cl)cc2Cl)c1-c1ccc(Cl)cc1 [rimonabant, reference compound]
time spent in the open arms (EPM) (C57Bl/6J mice): significantly reduced
